Measured values from publication PMC10073473, “Integrative omics-analysis of lipid metabolism regulation by peroxisome proliferator-activated receptor a and b agonists in male Atlantic cod” (Frontiers in Physiology, 2023).

Biological target: T1, Pparb (gmPparb) (Gadus morhua, UniProt A0A8C4ZA29)
T1 construct: gene PPARD
T1 sequence (A0A8C4ZA29 216-511 limits assumed): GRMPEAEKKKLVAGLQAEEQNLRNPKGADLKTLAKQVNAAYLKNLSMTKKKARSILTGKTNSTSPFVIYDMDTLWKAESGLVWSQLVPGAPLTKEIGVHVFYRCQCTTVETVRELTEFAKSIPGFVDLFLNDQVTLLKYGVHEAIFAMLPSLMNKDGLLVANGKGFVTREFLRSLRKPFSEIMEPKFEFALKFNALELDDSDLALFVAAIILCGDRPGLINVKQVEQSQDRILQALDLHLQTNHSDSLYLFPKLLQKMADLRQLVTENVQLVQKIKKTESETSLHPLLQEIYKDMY
Assay: GAL4-LBD luciferase reporter gene assay in COS-7 cells
Type: cell-based

Cc1cc(SCc2sc(-c3ccc(C(F)(F)F)cc3)nc2C)ccc1OCC(=O)O [GW501516, 2-[2-Methyl-4-[[[4-methyl-2-[4-(trifluoromethyl)phenyl]-5-thiazolyl]methyl]thio]phenoxy]-acetic acid]
EC50: 5.9 µM
